Experimental data taken from patent US9115134B2, “6-triazolopyridazine sulfanyl benzothiazole derivatives as MET inhibitors” (SANOFI, priority 2007, dated 2015).

What was measured:
[1] = test system: HCT116 cells, MKN45 cells; test: Test C: Measurement of cell proliferation by 14C-thymidine pulse; assay type: cell-based; details: 14C-thymidine incorporation, 96 h of treatment; cell line not given
Protocol: (§1) Stop the reaction with 100 μl of stop solution. Read without delay at […], 0.1 second on Wallac Victor plate reader. • C) Test C: Measurement of cell proliferation by ^14c-thymidine pulse
The cells are seeded into Cytostar 96-well plates in 180 μl for 4 hours at 37° C. and 5% CO2: HCT116 cells at a rate of 2500 cells per well in DMEM medium+10% foetal calf serum+1% L-glutamine and MKN45 cells at a rate of 7500 cells per well in RPMI medium+10% foetal calf serum+1% L-glutamine. After these 4 hours of incubation, the products are added in 10 μl as a 20-fold concentrated solution according to the dilution method mentioned for the ELISA. The products are tested at 10 concentrations in duplicate from 10 000 nM to 0.3 nM with an increment of 3.
After treatment for 72 h, add 10 μl of ^14C-thymidine at 10 μCi/ml to obtain 0.1 μCi per well. The ^14C-thymidine incorporation is measured on a Micro-Beta machine (Perkin-Elmer) after 24 hours of pulse and 96 h of treatment.
All the steps of the assay are automated on BIOMEK 2000 or TECAN stations.

MET [2] = molecular target: T1, MET (Homo sapiens, UniProt P08581); test: Test B: Inhibition of the autophosphorylation of MET; ELISA technique (pppY1230,1234,1235) in MKN45 cells; assay type: cell-based; parameters: Seed MKN45 cells into 96-well plates (Cell coat BD polylysine) at 20 000 cells/well; endogenous in cells; host or cells: MKN45 cells; details: 1 h treatment, PhosphoMET ELISA
Protocol: Leave to adhere for 24 hours in an incubator.
The cells are treated the day after seeding with the products at 6 concentrations in duplicate for 1 h. At least 3 control wells are treated with the same final amount of DMSO.
Product dilution: Stock at 10 mM in pure DMSO—range from 10 mM to 30 μM with an increment of 3 in pure DMSO—intermediate 1/50 dilutions in culture medium and then removal of 10 μl added directly to the cells (200 μl): final range of 10 000 to 30 nM.
At the end of the incubation, carefully remove the supernatant and rinse with 200 μl of PBS. Next, place 100 μl of lysis buffer directly in the wells on ice and incubate at 4° C. for 30 minutes. Lysis buffer: 10 mM Tris HCl, pH7.4, 100 mM NaCl, 1 mM EDTA, 1 mM EGTA, 1% Triton X-100, 10% glycerol, 0.1% SDS, 0.5% deoxycholate, 20 mM NaF, 2 mM Na3VO4, 1 mM PMSF and cocktail of antiproteases.
The 100 μl of lysates are transferred into a V-bottomed polypropylene plate and the ELISA is performed immediately, or the plate is frozen at −80° C. • b) PhosphoMET ELISA BioSource Kit KH00281
Into each well of the kit plate, add 70 μl of kit dilution buffer+30 μL of cell lysate or 30 μl of lysis buffer for the blanks. Incubate for 2 h with gentle agitation at ambient temperature.
Rinse the wells 4 times with 400 μl of kit washing buffer. Incubate with 100 μl of anti-phospho MET antibody for 1 hour at ambient temperature.
Rinse the wells 4 times with 400 μl of kit washing buffer. Incubate with 100 μl of anti-rabbit HRP antibody for 30 minutes at ambient temperature (except for the wells of chromogen alone).
Rinse the wells 4 times with 400 μl of kit washing buffer. Introduce 100 μL of chromogen and incubate for 30 minutes in the dark at ambient temperature.
as §1
Target sequence in this assay (P08581 25-1390): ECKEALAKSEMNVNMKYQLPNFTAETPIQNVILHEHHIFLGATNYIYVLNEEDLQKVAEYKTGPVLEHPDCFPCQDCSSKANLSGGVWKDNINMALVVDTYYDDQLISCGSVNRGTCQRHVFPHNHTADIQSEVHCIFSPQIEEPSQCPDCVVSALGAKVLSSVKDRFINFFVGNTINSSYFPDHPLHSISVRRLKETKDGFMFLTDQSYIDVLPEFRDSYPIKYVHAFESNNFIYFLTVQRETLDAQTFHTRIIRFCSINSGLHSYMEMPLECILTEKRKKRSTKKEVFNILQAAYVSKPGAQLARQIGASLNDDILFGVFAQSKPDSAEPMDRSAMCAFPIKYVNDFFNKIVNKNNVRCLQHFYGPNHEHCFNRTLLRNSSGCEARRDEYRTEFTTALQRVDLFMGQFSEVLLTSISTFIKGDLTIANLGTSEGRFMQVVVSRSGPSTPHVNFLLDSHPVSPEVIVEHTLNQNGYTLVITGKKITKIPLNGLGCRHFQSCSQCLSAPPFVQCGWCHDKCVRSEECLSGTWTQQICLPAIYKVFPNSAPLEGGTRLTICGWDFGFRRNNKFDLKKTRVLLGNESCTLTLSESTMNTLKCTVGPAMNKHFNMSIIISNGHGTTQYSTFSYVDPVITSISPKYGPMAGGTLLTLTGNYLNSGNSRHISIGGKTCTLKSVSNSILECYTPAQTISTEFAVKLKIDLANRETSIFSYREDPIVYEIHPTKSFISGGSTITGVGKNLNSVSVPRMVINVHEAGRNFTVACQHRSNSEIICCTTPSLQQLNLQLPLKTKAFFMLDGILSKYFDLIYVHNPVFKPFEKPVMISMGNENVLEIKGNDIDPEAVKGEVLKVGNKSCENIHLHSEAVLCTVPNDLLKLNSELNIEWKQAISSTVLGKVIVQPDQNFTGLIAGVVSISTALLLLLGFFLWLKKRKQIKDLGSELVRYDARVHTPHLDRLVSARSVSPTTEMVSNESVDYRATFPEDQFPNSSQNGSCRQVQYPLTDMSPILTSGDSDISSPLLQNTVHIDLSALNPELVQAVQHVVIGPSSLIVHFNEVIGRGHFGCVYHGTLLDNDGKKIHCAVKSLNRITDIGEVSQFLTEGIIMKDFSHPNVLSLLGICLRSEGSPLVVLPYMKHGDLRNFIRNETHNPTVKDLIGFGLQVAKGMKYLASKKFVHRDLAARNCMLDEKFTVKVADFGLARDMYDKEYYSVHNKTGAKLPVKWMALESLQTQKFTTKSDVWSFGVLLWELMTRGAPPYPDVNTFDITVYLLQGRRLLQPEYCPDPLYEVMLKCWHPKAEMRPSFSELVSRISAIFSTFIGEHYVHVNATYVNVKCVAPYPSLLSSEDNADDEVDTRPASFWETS

MET [3] = molecular target: T1, MET; test: Test A: HTRF MET assay in 96-well format; assay type: biochemical; parameters: The His-Tev-MET (956-1390) recombinant DNA in pFastBac (Invitrogen) is transfected into insect cells; His tag (N, cleaved yes); TEV cleavage site (N); made in house; host or cells: SF21 insect cells (baculovirus, pFastBac); details: MET 5 nM, 10 μM ATP
Protocol: I) Expression and Purification of MET, Cytoplasmic Domain
The His-Tev-MET (956-1390) recombinant DNA in pFastBac (Invitrogen) is transfected into insect cells, and after several viral amplification steps, the final baculovirus stock is tested for the expression of the protein of interest.
After infection for 72 h at 27° C. with the recombinant virus, the SF21 cell cultures are harvested by centrifugation and the cell pellets are stored at −80° C.
The cell pellets are resuspended in lysis buffer (buffer A [50 mM HEPES, pH 7.5, 250 mM NaCl, 10% glycerol, 1 mM TECP]; +cocktail of protease inhibitors, Roche Diagnostics, without EDTA, ref 1873580), stirred at 4° C. until the mixture is homogeneous and then lyzed mechanically using a “Dounce” type apparatus.
After centrifugation, the lysis supernatant is incubated for 2 h at 4° C. with nickel chelate resin (His-Trap 6 Fast Flow™, GE HealthCare). After washing with 20 volumes of buffer A, the suspension is packed into a column, and the proteins are eluted with a gradient of buffer B ([…]+290 mM imidazole).
The fractions containing the protein of interest for the purpose of electrophoretic analysis (SDS PAGE) are combined, concentrated by ultrafiltration (10 kDa cut-off) and injected onto an exclusion chromatography column (Superdex™ 200, GE HealthCare) equilibrated in buffer A.
After enzymatic cleavage of the histidine tag, the protein is reinjected onto a new IMAC nickel chelate chromatography column (His-Trap 6 Fast Flow™, GE HealthCare) equilibrated in buffer A. The fractions eluted with a gradient of buffer B and containing the protein of interest after electrophoresis (SDS PAGE) are finally combined and conserved at −80° C.
For the production of autophosphorylated protein, the previous fractions are incubated for 1 h at ambient temperature after the addition of 2 mM ATP, 2 mM MgCl2, and 4 mM Na3VO4. After the reaction has been stopped with 5 mM of EDTA, the reaction mixture is injected onto a HiPrep desalifying column (GE HealthCare) preequilibrated in buffer A+4 mM Na3VO4, and the fractions containing the protein of interest (SDS PAGE analysis) are combined and stored at −80° C. The degree of phosphorylation is verified by mass spectrometry (LC-MS) and by peptide mapping.
• A) Test A: HTRF MET assay in 96-well format
MET at a final concentration of 5 nM is incubated in a final volume of 50 μl of enzymatic reaction in the presence of the test molecule (for a final concentration range of from 0.17 nM to 10 μM, 3% DMSO final concentration) in 10 mM MOPS buffer, pH 7.4, 1 mM DTT, 0.01% Tween 20. The reaction is initiated with the substrate solution to obtain final concentrations of 1 μg/ml poly-(GAT), 10 μM ATP and 5 mM MgCl2. After incubation for 10 min at ambient temperature, the reaction is stopped with a 30 μl mix so as to obtain a final solution of 50 mM Hepes pH 7.5, 500 mM potassium fluoride, 0.1% BSA and 133 mM EDTA in the presence of 80 ng of streptavidin 61SAXLB Cis-Bio Int. and 18 ng of anti-phosphotyrosine Mab PT66-Europium Cryptate per well. After incubation for 2 hours at ambient temperature, the reading is taken at 2 wavelengths, 620 nm and 665 nm, on a reader for the TRACE/HTRF technique and the % inhibition is calculated from the 665/620 ratios.
Target sequence in this assay (P08581 956-1390): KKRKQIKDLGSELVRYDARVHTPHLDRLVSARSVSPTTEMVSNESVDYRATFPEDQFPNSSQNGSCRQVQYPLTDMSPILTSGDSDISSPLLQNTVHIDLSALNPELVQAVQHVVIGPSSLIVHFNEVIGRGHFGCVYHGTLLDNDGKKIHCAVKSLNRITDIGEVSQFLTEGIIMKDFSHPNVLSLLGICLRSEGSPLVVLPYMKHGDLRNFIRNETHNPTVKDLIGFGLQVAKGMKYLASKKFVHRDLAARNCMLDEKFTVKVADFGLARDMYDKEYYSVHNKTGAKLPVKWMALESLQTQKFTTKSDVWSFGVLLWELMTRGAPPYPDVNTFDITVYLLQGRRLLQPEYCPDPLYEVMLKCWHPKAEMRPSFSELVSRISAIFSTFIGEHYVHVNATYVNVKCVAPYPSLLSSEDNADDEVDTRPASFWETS

| IC50 [1] [nM] | IC50 (MET [2]) [nM] | IC50 (MET [3]) [nM] | Compound |
| --- | --- | --- | --- |
| < 10000 | > 500 | < 100 | Nc1nc2ccc(Sc3ccc(C4=Nn5c(nnc5Sc5ccc6nc(N)sc6c5)CC4)cc3)cc2s1 [Example 8, 6-[(4-{3-[(2-amino-1,3-benzothiazol-6-yl)sulphanyl]-7,8-dihydro[1,2,4]triazolo-[4,3-b]pyridazin-6-yl}phenyl)sulphanyl]-1,3-benzothiazol-2-amine] |
| < 1000 | 100 to 500 | < 100 | CC(C)(C)OC(=O)Nc1nc2ccc(Sc3nnc4ccc(-c5ccc(F)cc5)nn34)cc2s1 [Example 2, 1,1-Dimethylethyl (6-{[6-(4-fluorophenyl)[1,2,4]triazolo[4,3-b]pyridazin-3-yl]sulphanyl}-1,3-benzothiazol-2-yl)carbamate] |
| < 1000 | < 100 | < 100 | O=C(NCCN1CCOCC1)Nc1nc2ccc(Sc3nnc4cccnn34)cc2s1 [Example 10, 1-(2-Morpholin-4-ylethyl)-3-[6-([1,2,4]triazolo[4,3-b]pyridazin-3-ylsulphanyl)-1,3-benzothiazol-2-yl]urea] |
| < 1000 | < 100 | < 100 | CC(C)(C)C(=O)Nc1ccc2nnc(Sc3ccc4nc(NC(=O)NCCN5CCOCC5)sc4c3)n2n1 [Example 32, 2,2-Dimethyl-N-(3-{[2-({[2-(morpholin-4-yl)ethyl]carbamoyl}amino)-1,3-benzothiazol-6-yl]sulphanyl}[1,2,4]triazolo[4,3-b]pyridazin-6-yl)propanamide] |
| < 1000 | < 100 | < 100 | COCCNc1ccc2nnc(Sc3ccc4nc(NC(C)=O)sc4c3)n2n1 [Example 27, N-[6-({6-[(2-Methoxyethyl)amino][1,2,4]triazolo[4,3-b]pyridazin-3-yl}sulphanyl)-1,3-benzothiazol-2-yl]acetamide] |
| < 1000 | < 100 | < 100 | COCCNc1nc2ccc(Sc3nnc4ccc(-c5ccc(F)cc5)nn34)cc2s1 [Example 26, 6-{[6-(4-Fluorophenyl)[1,2,4]triazolo[4,3-b]pyridazin-3-yl]sulphanyl}-N-(2-methoxyethyl)-1,3-benzothiazol-2-amine] |
| < 1000 | < 100 | < 100 | O=C(Nc1nc2ccc(Sc3nnc4ccc(-c5cccc(F)c5)nn34)cc2s1)C1CC1 [Example 67, N-(6-{[6-(3-Fluorophenyl)[1,2,4]triazolo[4,3-b]pyridazin-3-yl]sulphanyl}-1,3-benzothiazol-2-yl)cyclopropanecarboxamide] |
| < 1000 | 100 to 500 | < 100 | CCC(C)CNc1nc2ccc(Sc3nnc4ccc(NCCOC)nn34)cc2s1 (stereo not drawn) [Example 57, N-(2-Methoxyethyl)-3-({2-[(2-methylbutyl)amino]-1,3-benzothiazol-6-yl}sulphanyl)[1,2,4]triazolo[4,3-b]pyridazin-6-amine] |
| < 1000 | < 100 | < 100 | COCCNc1ccc2nnc(Sc3ccc4nc(NC(=O)CCCN5CCOCC5)sc4c3)n2n1 [Example 39, N-[6-({6-[(2-Methoxyethyl)amino][1,2,4]triazolo[4,3-b]pyridazin-3-yl}sulphanyl)-1,3-benzothiazol-2-yl]-4-(morpholin-4-yl)butanamide] |
| < 1000 | 100 to 500 | < 100 | CC(=O)Nc1ccc2nnc(Sc3ccc4nc(NC(=O)NCCN5CCOCC5)sc4c3)n2n1 [Example 31, N-(3-{[2-({[2-(Morpholin-4-yl)ethyl]carbamoyl}amino)-1,3-benzothiazol-6-yl]sulphanyl}[1,2,4]triazolo[4,3-b]pyridazin-6-yl)acetamide] |
| < 1000 | < 100 | < 100 | COCCNc1ccc2nnc(Sc3ccc4nc(NC(=O)C5CC5)sc4c3)n2n1 [Example 40, N-[6-({6-[(2-Methoxyethyl)amino][1,2,4]triazolo[4,3-b]pyridazin-3-yl}sulphanyl)-1,3-benzothiazol-2-yl]cyclopropanecarboxamide] |
| < 1000 | < 100 | < 100 | COC(=O)Nc1nc2ccc(Sc3nnc4ccc(-c5ccc(F)cc5)nn34)cc2s1 [Example 1, Methyl (6-{[6-(4-fluorophenyl)[1,2,4]triazolo[4,3-b]pyridazin-3-yl]sulphanyl}-1,3-benzothiazol-2-yl)carbamate] |
| < 1000 | < 100 | < 100 | O=C(NCC[N+]1([O-])CCOCC1)Nc1nc2ccc(Sc3nnc4ccc(-c5ccc(F)cc5)nn34)cc2s1 [Example 42, 1-(6-{[6-(4-Fluorophenyl)[1,2,4]triazolo[4,3-b]pyridazin-3-yl]sulphanyl}-1,3-benzothiazol-2-yl)-3-[2-(4-oxidomorpholin-4-yl)ethyl]urea] |
| < 1000 | 100 to 500 | < 100 | COc1ccc2nnc(Sc3ccc4nc(NC(=O)OC(C)(C)C)sc4c3)n2n1 [Example 21, 1,1-Dimethylethyl {6-[(6-methoxy[1,2,4]triazolo[4,3-b]pyridazin-3-yl)sulphanyl]-1,3-benzothiazol-2-yl}carbamate] |
